From PubChem BioAssay AID330 (DTP/NCI, 2004)
“And” between values parts separate entries of the source, which are not always exact repeats. Equal values may be shown once. Inconclusive results and toxic doses are left out.

Tested on: P388 leukemia ip, CD2F1 mice, survival T/C
Experiment: NCI In Vivo Anticancer Drug Screen. Data for tumor model P388 Leukemia (intraperitoneal) in CD2F1 (CDF1) mice
Conditions: endpoint: median survival time, higher = longer survival
Summary of the method: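 Mice carrying the transplanted tumor received test compound or vehicle. Survival was recorded in each group, and the value is the treated-group measurement divided by that of the vehicle-treated control group.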

[1] = dose: 100.0 mg/kg/injection, schedule: Q04DX002 (ip), vehicle: saline with Tween-80
[2] = dose: 50.0 mg/kg/injection, schedule: Q01DX009 (ip), vehicle: saline with Tween-80
[3] = dose: 100.0 mg/kg/injection, schedule: Q01DX009 (ip), vehicle: saline with Tween-80
[4] = dose: 200.0 mg/kg/injection, schedule: Q01DX009 (ip), vehicle: saline with Tween-80
[5] = dose: 50.0 mg/kg/injection, schedule: Q01DX009 (ip), vehicle: Klucel (hydroxypropylcellulose) (HPC)
[6] = dose: 100.0 mg/kg/injection, schedule: Q01DX009 (ip), vehicle: Klucel (hydroxypropylcellulose) (HPC)
[7] = dose: 200.0 mg/kg/injection, schedule: Q01DX009 (ip), vehicle: Klucel (hydroxypropylcellulose) (HPC)
[8] = dose: 50.0 mg/kg/injection, schedule: Q01DX005 (ip), vehicle: saline with Tween-80
[9] = dose: 100.0 mg/kg/injection, schedule: Q01DX005 (ip), vehicle: saline with Tween-80
[10] = dose: 200.0 mg/kg/injection, schedule: Q01DX005 (ip), vehicle: saline with Tween-80
[11] = dose: 6.25 mg/kg/injection, schedule: Q01DX005 (ip), vehicle: Klucel (hydroxypropylcellulose) (HPC)
[12] = dose: 12.5 mg/kg/injection, schedule: Q01DX005 (ip), vehicle: Klucel (hydroxypropylcellulose) (HPC)
[13] = dose: 25.0 mg/kg/injection, schedule: Q01DX005 (ip), vehicle: Klucel (hydroxypropylcellulose) (HPC)
[14] = dose: 60.0 mg/kg/injection, schedule: Q01DX005 (ip), vehicle: saline with Tween-80
[15] = dose: 120.0 mg/kg/injection, schedule: Q01DX005 (ip), vehicle: saline with Tween-80
[16] = dose: 240.0 mg/kg/injection, schedule: Q01DX005 (ip), vehicle: saline with Tween-80
[17] = dose: 12.5 mg/kg/injection, schedule: Q01DX009 (ip), vehicle: saline with Tween-80
[18] = dose: 25.0 mg/kg/injection, schedule: Q01DX009 (ip), vehicle: saline with Tween-80
[19] = dose: 50.0 mg/kg/injection, schedule: Q01DX005 (ip), vehicle: Klucel (hydroxypropylcellulose) (HPC)
[20] = dose: 100.0 mg/kg/injection, schedule: Q01DX005 (ip), vehicle: Klucel (hydroxypropylcellulose) (HPC)

SMILES: C#CCN(Cc1ccc2nc(N)[nH]c(=O)c2c1)c1ccc(C(=O)NC(CCC(=O)O)C(=O)O)cc1 (centres undefined)
- T/C (dose: 12.5 mg/kg/injection, schedule: Q01DX005 (ip), vehicle: water): 103 % of control and 104 % of control and 97 % of control
- T/C (dose: 25.0 mg/kg/injection, schedule: Q01DX005 (ip), vehicle: water): 103 % of control and 104 % of control (2×)
- T/C (dose: 50.0 mg/kg/injection, schedule: Q01DX005 (ip), vehicle: water): 109 % of control and 120 % of control (2×)
- T/C (dose: 100.0 mg/kg/injection, schedule: Q01DX005 (ip), vehicle: water): 117 % of control
- T/C (dose: 150.0 mg/kg/injection, schedule: Q01DX005 (ip), vehicle: alkali diluted with water): 97 % of control
- T/C (dose: 200.0 mg/kg/injection, schedule: Q01DX005 (ip), vehicle: water): 97 % of control

SMILES: COc1ccc(NC(SC)=C(C#N)C#N)cc1
- T/C (dose: 25.0 mg/kg/injection, schedule: Q04DX002 (ip), vehicle: saline with Tween-80): 99 % of control
- T/C (dose: 50.0 mg/kg/injection, schedule: Q04DX002 (ip), vehicle: saline with Tween-80): 100 % of control
- T/C [1]: 98 % of control

SMILES: COC(=O)CC(C)CC(=O)O (centres undefined)
- T/C [2]: 100 % of control
- T/C [3]: 107 % of control
- T/C [4]: 100 % of control

SMILES: CCCCN=C(N=C(N)N)NCC
- T/C (dose: 50.0 mg/kg/injection, schedule: Q01DX005 (ip), vehicle: saline): 102 % of control
- T/C (dose: 100.0 mg/kg/injection, schedule: Q01DX005 (ip), vehicle: saline): 102 % of control

SMILES: ClC(Cl)(Cl)C(N1CCN(c2ccccc2)CC1)N1CCN(c2ccccc2)CC1
- T/C [3]: 101 % of control
- T/C [4]: 101 % of control
- T/C (dose: 400.0 mg/kg/injection, schedule: Q01DX009 (ip), vehicle: saline with Tween-80): 106 % of control
- T/C (dose: 600.0 mg/kg/injection, schedule: Q01DX009 (ip), vehicle: saline with Tween-80): 100 % of control

SMILES: COc1ccc(CNC(=O)C2C(=O)C(=O)N(Cc3ccc(OC)c(OC)c3)C2=O)cc1OC (centres undefined)
- T/C [5]: 105 % of control
- T/C [6]: 96 % of control
- T/C [7]: 103 % of control

SMILES: O=P(Oc1ccccc1)(Oc1ccccc1)C(O)C(Cl)(Cl)Cl (centres undefined)
- T/C [2]: 107 % of control
- T/C [3]: 100 % of control and 117 % of control
- T/C [4]: 103 % of control

SMILES: BrCOCCCCOCBr
- T/C (dose: 60.0 mg/kg/injection, schedule: Q01DX005 (ip), vehicle: saline): 114 % of control
- T/C (dose: 120.0 mg/kg/injection, schedule: Q01DX005 (ip), vehicle: saline): 101 % of control
- T/C (dose: 240.0 mg/kg/injection, schedule: Q01DX005 (ip), vehicle: saline): 108 % of control

SMILES: CCOC(=O)c1cncc(Br)c1
- T/C [8]: 113 % of control
- T/C [9]: 103 % of control
- T/C [10]: 113 % of control

SMILES: NS(=O)(=O)c1ccc(NC(=O)Nc2c(Cl)cccc2Cl)cc1
- T/C [5]: 96 % of control
- T/C [6]: 87 % of control
- T/C [7]: 95 % of control

SMILES: COC(=O)C1=C(C(=O)OC)[C]([Hg][CH3])(C(=O)c2ccccc2)N=N1 (centres undefined)
- T/C (dose: 6.25 mg/kg/injection, schedule: Q01DX009 (ip), vehicle: saline): 93 % of control
- T/C (dose: 12.5 mg/kg/injection, schedule: Q01DX009 (ip), vehicle: saline): 103 % of control
- T/C (dose: 25.0 mg/kg/injection, schedule: Q01DX009 (ip), vehicle: saline): 90 % of control

SMILES: CCN(CC)C(=S)n1c(=S)nc(N(CC)CC)sc1=S
- T/C [11]: 109 % of control
- T/C [12]: 98 % of control
- T/C [13]: 108 % of control

SMILES: COc1ccc(/C=C/C(=O)C(C)(C)Br)cc1
- T/C [14]: 101 % of control
- T/C [15]: 101 % of control
- T/C [16]: 103 % of control

SMILES: CCOP(O)(=S)OCC.[Ho]
- T/C (dose: 100.0 mg/kg/injection, schedule: Q01DX001 (ip), vehicle: Klucel (hydroxypropylcellulose) (HPC)): 91 % of control
- T/C (dose: 200.0 mg/kg/injection, schedule: Q01DX001 (ip), vehicle: Klucel (hydroxypropylcellulose) (HPC)): 88 % of control
- T/C (dose: 400.0 mg/kg/injection, schedule: Q01DX001 (ip), vehicle: Klucel (hydroxypropylcellulose) (HPC)): 90 % of control

SMILES: O=C(NC1CCCCC1)C(=O)c1cc(Cl)c(Cl)c(Cl)c1Cl
- T/C [2]: 106 % of control
- T/C [3]: 114 % of control
- T/C [4]: 103 % of control

SMILES: N[C@@]1(C(F)(F)F)N[C@](N)(C(F)(F)F)C(F)(F)C(F)(F)C1(F)F
- T/C [11]: 102 % of control
- T/C [12]: 95 % of control

SMILES: [Br][Pb]([Br])([c]1ccccc1)[c]1ccccc1
- T/C [17]: 104 % of control and 112 % of control
- T/C [18]: 113 % of control (2×) and 114 % of control
- T/C [2]: 107 % of control and 121 % of control
- T/C [3]: 98 % of control

SMILES: CN1CC2CCCCN2CC(Cc2ccccc2)([N+](=O)[O-])C1 (centres undefined)
- T/C (dose: 100.0 mg/kg/injection, schedule: Q04DX002 (ip), vehicle: saline): 109 % of control
- T/C (dose: 200.0 mg/kg/injection, schedule: Q04DX002 (ip), vehicle: saline): 109 % of control

SMILES: CCOC(=O)CSc1sc(C(=O)OCC)c(N)c1C#N
- T/C [2]: 87 % of control

SMILES: CC1(C)C2CCC1(C)C(OC(=O)/C=C/c1ccc(O)c(O)c1)C2 (centres undefined)
- T/C (dose: 12.5 mg/kg/injection, schedule: Q01DX009 (ip), vehicle: Klucel (hydroxypropylcellulose) (HPC)): 100 % of control
- T/C (dose: 25.0 mg/kg/injection, schedule: Q01DX009 (ip), vehicle: Klucel (hydroxypropylcellulose) (HPC)): 98 % of control
- T/C [5]: 87 % of control
- T/C [6]: 97 % of control

SMILES: O=C(CC(=O)Oc1ccc(Cl)cc1Cl)Oc1ccc(Cl)cc1Cl
- T/C (dose: 100.0 mg/kg/injection, schedule: Q04DX003 (ip), vehicle: saline with Tween-80): 95 % of control
- T/C (dose: 200.0 mg/kg/injection, schedule: Q04DX003 (ip), vehicle: saline with Tween-80): 91 % of control
- T/C (dose: 400.0 mg/kg/injection, schedule: Q04DX003 (ip), vehicle: saline with Tween-80): 100 % of control

SMILES: CCn1cc(C(=O)O)c(=O)c2nc(N3CCOCC3)sc21
- T/C [14]: 106 % of control
- T/C [15]: 95 % of control
- T/C [16]: 98 % of control

SMILES: COc1cccc(OC)c1OCc1ccc(OCc2ccccc2)cc1
- T/C [8]: 100 % of control
- T/C [9]: 95 % of control
- T/C [10]: 105 % of control

SMILES: c1ccc2c(c1)c1c(c3ccccc32)CN2CCCC2C1 (centres undefined)
- T/C [19]: 105 % of control
- T/C [20]: 101 % of control
- T/C (dose: 200.0 mg/kg/injection, schedule: Q01DX005 (ip), vehicle: Klucel (hydroxypropylcellulose) (HPC)): 110 % of control

SMILES: N#C/C(=N\Nc1cccc(C(F)(F)F)c1)C(N)=O
- T/C [19]: 103 % of control
- T/C [20]: 115 % of control

SMILES: COc1ccc(/C=N\N=C(/[O-])c2ccc(Cl)cc2)cc1.COc1ccc(/C=N\N=C(/[O-])c2ccc(Cl)cc2)cc1.[Ni+2].[OH3+].[OH3+]
- T/C [1]: 92 % of control

SMILES: C=Cc1ccccc1 (tested in a mixture with another compound)
- T/C (dose: 12.5 mg/kg/injection, schedule: Q01DX005 (ip), vehicle: saline): 98 % of control
- T/C (dose: 25.0 mg/kg/injection, schedule: Q01DX005 (ip), vehicle: saline): 99 % of control

SMILES: COC(=O)CS(=O)(=O)CC(=O)OC
- T/C [5]: 100 % of control
- T/C [6]: 106 % of control
- T/C [7]: 101 % of control

SMILES: N#Cc1c(-c2ccccc2)c(-c2ccccc2)nn(CCO)c1=O
- T/C (dose: 25.0 mg/kg/injection, schedule: Q04DX002 (ip), vehicle: distilled water + Tween-80): 94 % of control
- T/C (dose: 50.0 mg/kg/injection, schedule: Q04DX002 (ip), vehicle: distilled water + Tween-80): 103 % of control
- T/C (dose: 100.0 mg/kg/injection, schedule: Q04DX002 (ip), vehicle: distilled water + Tween-80): 108 % of control
- T/C (dose: 200.0 mg/kg/injection, schedule: Q04DX002 (ip), vehicle: distilled water + Tween-80): 110 % of control

SMILES: CC(C)C([N+](C)(C)C)P(=O)([O-])O (centres undefined)
- T/C [3]: 100 % of control
- T/C [4]: 90 % of control

SMILES: CN1CCC(O)(c2ccc(Br)cc2)C(C(=O)c2ccc(Br)cc2)C1 (centres undefined)
- T/C [12]: 100 % of control
- T/C [13]: 100 % of control
- T/C [19]: 90 % of control and 91 % of control

SMILES: O=C(Sc1ccc(Cl)cc1)N1CCN(C(=O)Sc2ccc(Cl)cc2)CC1
- T/C [5]: 92 % of control
- T/C [6]: 90 % of control
- T/C [7]: 94 % of control

SMILES: C=CCOc1ccccc1N/N=C(\Cl)C(=O)OCC
- T/C [17]: 124 % of control
- T/C [18]: 120 % of control
- T/C [2]: 121 % of control

SMILES: Cc1ccc(NC(=O)Nc2cccnc2)cc1NC(=O)Nc1cccnc1
- T/C [5]: 102 % of control
- T/C [6]: 110 % of control
- T/C [7]: 100 % of control
